The source of these data is patent US9642825B2, “Bio-available N-acetyl creatine species and compositions thereof” (4141 HOLDINGS, LLC, priority 2014, dated 2017).

A short description of data set [1]: Dissolution time of 1 gram in distilled water at room temperature. It is filed as physicochemical. Conditions: 75 RPM.
A short description of data set [2]: Dissolution time of 1 gram in 0.1N HCl (pH 1.2). It is filed as physicochemical. The note with it: 1.000 Gram in 900 ml 0.1N HCl in Water, pH = 1.2, 73 C., 75 RPM.
Data set [3] is described as follows: Solubility in water. It counts as physicochemical.
The nature of data set [4]: Chemical stability in aqueous media (conversion to creatinine). It is filed as physicochemical. As to the method: As may be seen, 1 gram of N-acetyl creatine dissolves faster than other creatine derivatives, except creatine ethyl ester HCl, designated Creatine EE Hcl—(High Creatine Conversion) in FIG. 1. However, this shorter dissolution time may be deceiving. […] Instead, Creatine ethyl ester HCl decomposes into creatinine in a matter of 2 to 3 minutes. Creatinine is an excretory byproduct produced from the breakdown of creatine phosphate and offers none of the numerous benefits of creatine. In other words, Creatine ethyl ester HCl is unstable and its rapid conversion to creatinine makes it ineffective in delivering bioavailable creatine to the body.

In data set [5] the test system is person with myasthenia gravis. Conditions: five grams daily, resistance training 3 times per week for 15 weeks; cited from earlier work.
Data set [6] has as its system myostatin. Conditions: cited from earlier work.
Data set [7] concerns muscle strength and weightlifting performance. Conditions: cited from earlier work.
In data set [8] the test system is human fibroblasts. Conditions: cited from earlier work.
Setting [9] is: 1.000 Gram in 900 ml Distilled Water, creatine types.
The mark [10] stands for this setting: 1.000 g in 900 ml Distilled Water, L-leucine versus N-acetyl L-leucine.
[11] abbreviates: creatine supplementation plus resistance training.
Where [12] appears, read: versus placebo ingestion during resistance training.

As for `CN(CC(=O)N[C@@H](CCC(N)=O)C(=O)O)C(=N)N` [Creatyl-L-Glutamine], the “Time (Minutes) to dissolve” value stood at 25.02 min in data set [1] (setting [9]) and 6.33 min in data set [2].
Regarding `CC(=O)NC(=N)N(C)CC(=O)O` [N-acetyl creatine], the “Time (Minutes) to dissolve” value in data set [1] (setting [9]) was found to be 3.70 min. The “times more soluble than the parent compound creatine” value in data set [3] is given as 30 times. In addition, in data set [3] (water), the “increase of solubility with respect to creatine monohydrate” value is 30 fold and the solubility in water worked out at 400 grams/1 liter. Further, in data set [4], the “stability in solution (in words)” value was “remains stable in solution”. Moreover, the “Time (Minutes) to dissolve” value in data set [2] worked out at 2.17 min.
In the case of `CC(=O)N[C@@H](CC(C)C)C(=O)O` [N-Acetyl Leucine, N-acetyl L-leucine], the “Time (Minutes) to dissolve” value in data set [1] (setting [10]) worked out at 120.17 min. The “solubility in an aqueous medium (in words)” value in data set [3] (aqueous medium) was “extremely poor solubility”.
Turning to `CC(C)C[C@H](NC(=O)CN(C)C(=N)N)C(=O)O` [Creatyl-L-Leucine], the “Time (Minutes) to dissolve” value in data set [1] (setting [9]) was found to be 9.05 min; in data set [2], 3.08 min.
With `CC(C)C[C@H](N)C(=O)O` [Leucine, L-leucine], in data set [1] (setting [10]), the “Time (Minutes) to dissolve” value amounted to 12.82 min. In data set [3] (aqueous medium), the “solubility in an aqueous medium (in words)” value is given as “very low water solubility” and the “solubility of free leucine relative to N-acetyl-Leucine” value is “ten times greater”.
As for `CN(CC(=O)O)C(=N)N.O` [Creatine Monohydrate], the “Time (Minutes) to dissolve” value in data set [1] (setting [9]) amounted to 14.42 min.
With `CN(CC(=O)O)C(=N)N` [creatine, 2-(carbamimidoyl-methyl-amino) acetic acid], in data set [5], the improved peak strength result is listed as “up to 37%”, the “increase in body weight” value is reported as 7% and the “increase in fat free mass” value is 4%. In addition, in data set [6], the “myostatin blocked in muscle” value is on record as 60%. For the same molecule, in data set [7] (setting [11]), the “average increase in muscle strength” value is 20% and the “average increase in weightlifting performance (maximal repetitions at a given percent of maximal strength)” value is reported as 26%. Further, in data set [7] (setting [12]), the “average increase in muscle strength, greater than following placebo” value is recorded as 8% and the “average increase in weightlifting performance, greater than following placebo” value is recorded as 14%.
Regarding `CCCCCCCCCCCCOC(=O)CN(C)C(=N)N` [dodecyl creatine ester], in data set [8], the “increase compared with the endogenous creatine content” value is 20 fold.
On to `CCOC(=O)CN(C)C(=N)N.Cl` [Creatine ethyl ester HCl], for which the entries for the “Time (Minutes) to dissolve” value in data set [1] (setting [9]) and in data set [2] were 1.68 min and 0.95 min, respectively. Besides, the “stability in solution (in words)” value in data set [4] is listed as “unstable”.
For the molecule Creatine Taurinate, the entries for the “Time (Minutes) to dissolve” value in data set [1] (setting [9]) and in data set [2] were 15.85 min and 10.30 min, respectively.
In the case of `CN(CC(=O)O)C(=N)N.O=[N+]([O-])O` [Creatine Nitrate], the “Time (Minutes) to dissolve” value in data set [1] (setting [9]) is 9.12 min.
Same read-out and setting: with `CN(CC(=O)O)C(=N)N.O=C(O)CC(O)(CC(=O)O)C(=O)O` [Creatine Citrate] the figure was 10.10 min.
